Laboratory results reported in patent US7973219B2, “Method for producing transgenic plants resistant to weed control compounds which disrupt the porphyrin pathways of plants” (Sumitomo Chemical Company, Limited, priority 1998, dated 2011).
Read-outs that look alike come from different tables or passages of the source.

Legend:
[1] = tested on: E. coli BT3/pACYCSP+pTVBCH strain; experiment: Growth of E. coli BT3/pACYCSP+pTVBCH (bchH) with herbicidal compound; assay type: cell-based; details: Escherichia coli, 18 h, 18 hours culture, Table 2
Excerpt: According to the description of Gibson, L. C. D. et al., Proc. Natl. Acad. Sci. USA, 92; p 1941 (1995), the DNA fragment containing bchH gene prepared in Example 1 was digested with the restriction enzymes NdeI and BglII. The resultant DNA fragment was inserted between NdeI restriction site and BamHI restriction site of expression vector pET11a (manufactured by Stratagene) to obtain plasmid pETBCH (FIG. 1). This plasmid pETBCH was introduced into E. coli BL21(DE3) strain competent cells (manufactured by Stratagene) according to the manual attached to the competent cells to obtain E. coli BL21(DE3)/pETBCH strain. The strain was inoculated into 1.5 ml LB liquid culture medium (1% tryptone, 0.5% yeast extract, 0.5% NaCl) containing 100 μg/ml ampicillin in a tube (14×10 mm), and the tube was covered with aluminum foil (hereinafter referred to as dark conditions), cultured with shaking at 37° C. under light of fluorescent lamp (about 8000 lux). When the absorbance at 600 nm of the liquid culture medium became about 0.6, isopropyl β-D-thiogalactopyranoside (IPTG) was added to the liquid culture medium so that the final concentration was 0.4 mM, and the culture was continued for about additional 20 hours. […] In contrast to this, when E. coli BL21(DE3)/pETBCH strain was cultured according to the same manner (with IPTG) except that the tube was not covered with aluminum foil (hereinafter referred to as light conditions), E. coli grew and turned red as above. […]
(§1) These strains were inoculated into YPT medium containing 10 or 1 ppm of the PPO inhibitory-type herbicidal compound represented by the above Structure 8, 100 μg/ml ampicillin, 15 μg/ml chloramphenicol, 10 μg/ml kanamycin, 10 μg/ml hemin and 50 μg/ml aminolevulinic acid, cultured under dark conditions or light conditions according to the same manner as in Example 2. Then, 18 hours after initiation of culture, the absorbance of the liquid culture medium was measured at 600 nm. By taking the absorbance of the medium without the herbicidal compound as 1, the relative value of the absorbance of the medium containing the herbicidal compound was calculated.
Further, these strains were inoculated into YPT medium containing PPO inhibitory-type herbicidal compounds represented by the above Structures 1, 14, 15, 18-22, 29, 32, 33, 34 and 36, respectively, 100 μg/ml ampicillin, 15 μg/ml chloramphenicol, 10 μg/ml kanamycin, 10 μg/ml hemin and 50 μg/ml aminolevulinic acid, cultured under dark conditions or light conditions similar to the Example 2. Then, 18 hours after initiation of culture, the absorbance of liquid culture medium was measured at 600 nm. By taking the absorbance of the medium without the herbicidal compound as 1, the relative value of the absorbance of the medium containing the herbicidal compound was calculated.

[2] = tested on: E. coli BT3/pACYCSP+pCR2.1 strain; experiment: Growth of E. coli BT3/pACYCSP+pCR2.1 (vector control) with herbicidal compound; assay type: cell-based, Escherichia coli; details: 18 hours culture, Table 6
Excerpt: According to the description of Gibson, L. C. D. et al., Proc. Natl. Acad. Sci. USA, 92; p 1941 (1995), the DNA fragment containing bchH gene prepared in Example 1 was digested with the restriction enzymes NdeI and BglII. The resultant DNA fragment was inserted between NdeI restriction site and BamHI restriction site of expression vector pET11a (manufactured by Stratagene) to obtain plasmid pETBCH (FIG. 1). This plasmid pETBCH was introduced into E. coli BL21(DE3) strain competent cells (manufactured by Stratagene) according to the manual attached to the competent cells to obtain E. coli BL21(DE3)/pETBCH strain. The strain was inoculated into 1.5 ml LB liquid culture medium (1% tryptone, 0.5% yeast extract, 0.5% NaCl) containing 100 μg/ml ampicillin in a tube (14×10 mm), and the tube was covered with aluminum foil (hereinafter referred to as dark conditions), cultured with shaking at 37° C. under light of fluorescent lamp (about 8000 lux). When the absorbance at 600 nm of the liquid culture medium became about 0.6, isopropyl β-D-thiogalactopyranoside (IPTG) was added to the liquid culture medium so that the final concentration was 0.4 mM, and the culture was continued for about additional 20 hours. […] In contrast to this, when E. coli BL21(DE3)/pETBCH strain was cultured according to the same manner (with IPTG) except that the tube was not covered with aluminum foil (hereinafter referred to as light conditions), E. coli grew and turned red as above.
The plasmid pTCHLH1 and pCR2.1 prepared in Example 7 were introduced into E. coli BT3/pACYCSP strain prepared in Example 3, respectively according to the method described in Hanahan, D. J., Mol. Biol., 166; p 557 (1983). E. coli BT3/pACYCSP+pTCHLH1 strain bearing plasmids pACYCSP and pTCHLH1, and E. coli BT3/pACYCSP+pCR2.1 strain bearing plasmids pACYCSP and pCR2.1 were obtained by culturing the above strains in YPT medium containing 100 μg/ml ampicillin, 15 μg/ml chloramphenicol and 50 μg/ml kanamycin, respectively.
as §1, with “These E. coli” for “These”, “by” for “by the above”, “chloramphenicol, 50” for “chloramphenicol, 10”

[3] = read-out: Relative absorbance, in the dark
[4] = read-out: Relative absorbance, in the light

C#CCOc1cc(N2C(=O)C3=C(CCCC3)C2=O)c(F)cc1Cl [Structure 8]
activity at 1 ppm [1, 3]: 106%
activity at 10 ppm [1, 3]: 90%
activity at 1 ppm [1, 4]: 77%
activity at 10 ppm [1, 4]: 80%
Relative absorbance ([2]; in the dark, 1 ppm): 1.0
Relative absorbance ([2]; in the dark, 10 ppm): 1.0
Relative absorbance ([2]; in the light, 1 ppm): 0.08
Relative absorbance ([2]; in the light, 10 ppm): 0.03
